Molecular target: human IRAK4 (Homo sapiens (Human), UniProt Q9NWZ3)
Assay: IRAK4 kinase inhibition, Transcreener fluorescence polarization ADP assay
Assay type: biochemical
Settings: recombinant full-length His6-IRAK4; 125 uM ATP; 90 min; Ki computed using ATP Km 642 uM
Protocol: Compounds were assayed for inhibition of human IRAK4 and IRAK1 catalytic activity using recombinant enzyme produced from insect cells. Full-length IRAK4 protein, carrying an N-terminal His6-Tag, was obtained from Life Technologies (Carlsbad, Calif., USA). The IRAK1 construct was produced internally and was comprised of IRAK1 residues Arg194 to Ser712, preceded by an NH2-terminal His6 tag and the coding sequence for glutathione-S-transferase.

Chain of human IRAK4 (Q9NWZ3 whole entry): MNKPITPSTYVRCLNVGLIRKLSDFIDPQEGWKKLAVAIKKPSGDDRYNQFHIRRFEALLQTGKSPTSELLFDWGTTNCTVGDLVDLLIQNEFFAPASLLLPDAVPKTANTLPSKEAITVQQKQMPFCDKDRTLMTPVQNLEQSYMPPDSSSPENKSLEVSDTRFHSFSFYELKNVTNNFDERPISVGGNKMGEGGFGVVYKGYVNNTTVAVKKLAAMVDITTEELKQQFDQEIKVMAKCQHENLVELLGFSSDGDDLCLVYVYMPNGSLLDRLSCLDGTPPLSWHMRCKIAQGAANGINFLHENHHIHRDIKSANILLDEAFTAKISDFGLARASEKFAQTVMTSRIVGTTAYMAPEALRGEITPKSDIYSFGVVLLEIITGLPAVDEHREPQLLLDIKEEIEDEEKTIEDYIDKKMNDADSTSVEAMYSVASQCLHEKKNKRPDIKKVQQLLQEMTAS

Compound | Ki
C[C@@H](C(N)=O)N1CCN(c2cc3c(cc2NC(=O)c2cnn4cccnc24)CC(C)(C)O3)CC1 [Example 473, N-[6-[4-[(1S)-2-amino-1-methyl-2-oxo-ethyl]piperazin-1-yl]-2,2-dimethyl-3H-benzofuran-5-yl]pyrazolo[1,5-a]pyrimidine-3-carboxamide] | 5 nM
C[C@H](O)CN1CCN(c2cc3c(cc2NC(=O)c2cnn4cccnc24)CC(C)(C)O3)CC1 [Example 474, (S)-N-(6-(4-(2-hydroxypropyl)piperazin-1-yl)-2,2-dimethyl-2,3-dihydrobenzofuran-5-yl)pyrazolo[1,5-a]pyrimidine-3-carboxamide] | 20 nM
C[C@@H](O)CN1CCN(c2cc3c(cc2NC(=O)c2cnn4cccnc24)CC(C)(C)O3)CC1 [Example 475, (R)-N-(6-(4-(2-hydroxypropyl)piperazin-1-yl)-2,2-dimethyl-2,3-dihydrobenzofuran-5-yl)pyrazolo[1,5-a]pyrimidine-3-carboxamide] | 9.5 nM
CC(C)(N)CN1CCN(c2cc3c(cc2NC(=O)c2cnn4cccnc24)CC(C)(C)O3)CC1 [Example 476, N-(6-(4-(2-amino-2-methylpropyl)piperazin-1-yl)-2,2-dimethyl-2,3-dihydrobenzofuran-5-yl)pyrazolo[1,5-a]pyrimidine-3-carboxamide] | 33 nM
C[C@@H](N)CN1CCN(c2cc3c(cc2NC(=O)c2cnn4cccnc24)CC(C)(C)O3)CC1 [Example 477, N-[6-[4-[(2R)-2-Aminopropyl]piperazin-1-yl]-2,2-dimethyl-3H-benzofuran-5-yl]pyrazolo[1,5-a]pyrimidine-3-carboxamide] | 35 nM
C[C@H](N)CN1CCN(c2cc3c(cc2NC(=O)c2cnn4cccnc24)CC(C)(C)O3)CC1 [Example 478, N-[6-[4-[(2S)-2-Aminopropyl]piperazin-1-yl]-2,2-dimethyl-3H-benzofuran-5-yl]pyrazolo[1,5-a]pyrimidine-3-carboxamide] | 6 nM
Cc1oc(=O)[nH]c1CN1CCN(c2cc3c(cc2NC(=O)c2cnn4cccnc24)CC(C)(C)O3)CC1 [Example 479, N-[2,2-Dimethyl-6-[4-[(5-methyl-2-oxo-3H-oxazol-4-yl)methyl]piperazin-1-yl]-3H-benzofuran-5-yl]pyrazolo[1,5-a]pyrimidine-3-carboxamide] | 6.7 nM
CC(C)N1Cc2cc(NC(=O)c3cnn4ccc(C(F)F)nc34)c(N3CCOCC3)cc2C1=O [Example 484, 5-(Difluoromethyl)-N-(2-isopropyl-6-morpholino-1-oxo-isoindolin-5-yl)pyrazolo[1,5-a]pyrimidine-3-carboxamide] | 350 nM
CC(C)N1Cc2cc(NC(=O)c3cnn4cc(C#N)cnc34)c(N3CCOCC3)cc2C1=O [Example 485, 6-cyano-N-(2-isopropyl-6-morpholino-1-oxo-isoindolin-5-yl)pyrazolo[1,5-a]pyrimidine-3-carboxamide] | 66 nM
CC(C)N1Cc2cc(NC(=O)c3cnn4cc(C(N)=O)cnc34)c(N3CCOCC3)cc2C1=O [Example 486, N3-(2-isopropyl-6-morpholino-1-oxo-isoindolin-5-yl)pyrazolo[1,5-a]pyrimidine-3,6-dicarboxamide] | 37 nM
CC(C)(O)[C@H](F)CN1Cc2cc(NC(=O)c3cnn4cccnc34)c(C3CC3)cc2C1=O [Example 487, N-[6-Cyclopropyl-2-[(2R)-2-fluoro-3-hydroxy-3-methyl-butyl]-1-oxo-isoindolin-5-yl]pyrazolo[1,5-a]pyrimidine-3-carboxamide] | 0.61 nM
Cn1cnc(-c2cc3c(cc2NC(=O)c2cnn4cccnc24)CC(C)(C)O3)c1 [Example 488, N-[2,2-Dimethyl-6-(1-methylimidazol-4-yl)-3H-benzofuran-5-yl]pyrazolo[1,5-a]pyrimidine-3-carboxamide] | 610 nM
Cn1ccc(-c2cc3c(cc2NC(=O)c2cnn4cccnc24)CC(C)(C)O3)n1 [Example 489, N-(2,2-dimethyl-6-(1-methyl-1H-pyrazol-3-yl)-2,3-dihydrobenzofuran-5-yl)pyrazolo[1,5-a]pyrimidine-3-carboxamide] | 240 nM
CC1(C)Cc2cc(NC(=O)c3cnn4cc(C5CNC5)cnc34)c(N3CCOCC3)cc2O1 [Example 490, 6-(Azetidin-3-yl)-N-(2,2-dimethyl-6-morpholino-3H-benzofuran-5-yl)pyrazolo[1,5-a]pyrimidine-3-carboxamide] | 980 nM
CC1(C)Cc2cc(NC(=O)c3cnn4cc(C(N)=O)cnc34)c(N3CCOCC3)cc2O1 [Example 491, N^3-(2,2-dimethyl-6-morpholino-2,3-dihydrobenzofuran-5-yl)pyrazolo[1,5-a]pyrimidine-3,6-dicarboxamide] | 1.1 nM
CNC(=O)c1cnc2c(C(=O)Nc3cc4c(cc3N3CCOCC3)C(=O)N(C[C@@H](F)C(C)(C)O)C4)cnn2c1 [Example 492, N3-[2-[(2R)-2-Fluoro-3-hydroxy-3-methyl-butyl]-6-morpholino-1-oxo-isoindolin-5-yl]-N^6-methyl-pyrazolo[1,5-a]pyrimidine-3,6-dicarboxamide] | 9.1 nM

Compound | Ki
CC1(C)Cc2cc(NC(=O)c3cnn4cc(OC(F)F)cnc34)c(N3CCOCC3)cc2O1 [Example 493, 6-(difluoromethoxy)-N-(2,2-dimethyl-6-morpholino-2,3-dihydrobenzofuran-5-yl)pyrazolo[1,5-a]pyrimidine-3-carboxamide] | 43 nM
CC(C)(O)[C@H](F)CN1Cc2cc(NC(=O)c3cnn4cccnc34)c(OCC3CC3)cc2C1=O [Example 496, N-[6-(Cyclopropylmethoxy)-2-[(2R)-2-fluoro-3-hydroxy-3-methyl-butyl]-1-oxo-isoindolin-5-yl]pyrazolo[1,5-a]pyrimidine-3-carboxamide] | 0.83 nM
C[C@H]1CN(C)CC[C@]12Cc1cc(NC(=O)c3cnn4cccnc34)c(N3CCOCC3)cc1O2 [Example 497, N-((2R,3'S)-1′,3′-dimethyl-6-morpholino-3H-spiro[benzofuran-2,4′-piperidin]-5-yl)pyrazolo[1,5-a]pyrimidine-3-carboxamide] | 2.6 nM
C[C@@H]1CN(C)CC[C@]12Cc1cc(NC(=O)c3cnn4cccnc34)c(N3CCOCC3)cc1O2 [Example 498, N-((2R,3′R)-1′,3′-dimethyl-6-morpholino-3H-spiro[benzofuran-2,4′-piperidin]-5-yl)pyrazolo[1,5-a]pyrimidine-3-carboxamide] | 29 nM
CC1(C)Cc2cc(NC(=O)c3cnn4cccnc34)c(N3CCOCC3)cc2C1=O [Example 499, N-(2,2-Dimethyl-6-morpholino-1-oxo-2,3-dihydro-1H-inden-5-yl)pyrazolo[1,5-a]pyrimidine-3-carboxamide] | 30 nM
CC(C)(O)[C@H](F)CN1Cc2cc(NC(=O)c3cnn4cccnc34)ccc2C1=O [Example 500, N-[2-[(2R)-2-Fluoro-3-hydroxy-3-methyl-butyl]-1-oxo-isoindolin-5-yl]pyrazolo[1,5-a]pyrimidine-3-carboxamide] | 84 nM
O=C(Nc1cc2c(cc1N1CCOCC1)OC1(CCN(CCF)CC1)C2)c1cnn2cccnc12 [Example 501, N-(1′-(2-fluoroethyl)-6-morpholino-3H-spiro[benzofuran-2,4′-piperidin]-5-yl)pyrazolo[1,5-a]pyrimidine-3-carboxamide] | 6.9 nM
CCN1CCC2(CC1)Cc1cc(NC(=O)c3cnn4cccnc34)c(N3CCOCC3)cc1O2 [Example 502, N-(1′-ethyl-6-morpholino-3H-spiro[benzofuran-2,4′-piperidin]-5-yl)pyrazolo[1,5-a]pyrimidine-3-carboxamide] | 5.8 nM
CC1(C)Cc2cc(NC(=O)c3cnn4cccnc34)c(N3CCN(Cc4ncc[nH]4)CC3)cc2O1 [Example 503, N-(6-(4-((1H-imidazol-2-yl)methyl)piperazin-1-yl)-2,2-dimethyl-2,3-dihydrobenzofuran-5-yl)pyrazolo[1,5-a]pyrimidine-3-carboxamide] | 4 nM
CC1(C)Cc2cc(NC(=O)c3cnn4cccnc34)c(N3CCN(Cc4cnoc4)CC3)cc2O1 [Example 504, N-(6-(4-(isoxazol-4-ylmethyl)piperazin-1-yl)-2,2-dimethyl-2,3-dihydrobenzofuran-5-yl)pyrazolo[1,5-a]pyrimidine-3-carboxamide] | 3.1 nM
CC1(C)Cc2cc(NC(=O)c3cnn4cccnc34)c(N3CCN(Cc4ccn[nH]4)CC3)cc2O1 [Example 505, N-(6-(4-((1H-pyrazol-5-yl)methyl)piperazin-1-yl)-2,2-dimethyl-2,3-dihydrobenzofuran-5-yl)pyrazolo[1,5-a]pyrimidine-3-carboxamide] | 5.2 nM
Cn1cncc1CN1CCN(c2cc3c(cc2NC(=O)c2cnn4cccnc24)CC(C)(C)O3)CC1 [Example 506, N-(2,2-dimethyl-6-(4-((1-methyl-1H-imidazol-5-yl)methyl)piperazin-1-yl)-2,3-dihydrobenzofuran-5-yl)pyrazolo[1,5-a]pyrimidine-3-carboxamide] | 5.1 nM
Cc1nc(CN2CCN(c3cc4c(cc3NC(=O)c3cnn5cccnc35)CC(C)(C)O4)CC2)c[nH]1 [Example 507, N-(2,2-dimethyl-6-(4-((2-methyl-1H-imidazol-4-yl)methyl)piperazin-1-yl)-2,3-dihydrobenzofuran-5-yl)pyrazolo[1,5-a]pyrimidine-3-carboxamide] | 3.2 nM
CC(C)N1CCN(c2cc3c(cc2NC(=O)c2cnn4cccnc24)CC(C)(C)O3)CC1 [Example 508, N-(6-(4-isopropylpiperazin-1-yl)-2,2-dimethyl-2,3-dihydrobenzofuran-5-yl)pyrazolo[1,5-a]pyrimidine-3-carboxamide] | 43 nM
CC1(C)Cc2cc(NC(=O)c3cnn4cccnc34)c(N3CCN(Cc4c[nH]cn4)CC3)cc2O1 [Example 509, N-(6-(4-((1H-imidazol-4-yl)methyl)piperazin-1-yl)-2,2-dimethyl-2,3-dihydrobenzofuran-5-yl)pyrazolo[1,5-a]pyrimidine-3-carboxamide] | 1.1 nM

Source: patent publication US10988478B1, “Pyrazolo[1,5a]pyrimidine derivatives as IRAK4 modulators” (Genentech, Inc., priority 2015, dated 2021)
